From US20230055657A1, “COMBINATION TREATMENT OF LIVER DISEASES USING INTEGRIN INHIBITORS” (NOVARTIS AG, priority 2019, published 2023)
Entries after “also recorded” stand apart in the source; their conditions may differ.

Legend:
[1] = tested on: murine CCl4 model of liver fibrosis; assay: 3-week murine CCl4 model of liver fibrosis; type: in vivo, mouse
Experimental: Antifibrotic activity of Compound 1 was established in an abbreviated, 3-week, murine CCl4 model of liver fibrosis. CCl4 is a hepatotoxin that when injected into mice results in liver fibrosis (Constandinou 2003). Compound 1 was dosed during the final week of injury.

CDAHFD NASH mouse model = CDAHFD NASH mouse model (prophylactic, therapeutic and 10-week studies); type: in vivo
Experimental: CDAHFD injury is a rodent model of NASH displaying liver fat accumulation, inflammation, and fibrosis (Matsumoto 2013). Three types of studies were performed: 1) prophylactic, Compound 1 in an abbreviated 3-week CDAHFD model; 2) therapeutic, Compound 1 for 6 weeks in the 11- to 12-week CDAHFD model; and 3) Compound 1 for 4 weeks in a 10-week CDAHFD model.
Compound 1 was tested therapeutically in 11- to 12-week CDAHFD injury studies at medium, high and highest doses across 3 independent studies.
Although pan-αv inhibition with CWHM12 reduced pSMAD and OHP levels, selective αvβ1 inhibition was sufficient for antifibrotic activity.

[2] = tested on: human cirrhotic NASH precision cut liver slices; assay: Profibrotic gene expression and fibrosis biomarkers in precision cut liver slices; type: cell-based
Experimental: The ability of Compound 1 to inhibit the expression of profibrotic genes and decrease biomarkers of fibrosis was measured in precision cut liver slices generated using cirrhotic liver tissues from NASH patient explants and from rodent models of liver fibrosis and NASH.
Data are mean +/−standard deviation from the 5 cirrhotic NASH patients. DMSO was used as the solvent and utilized at a constant concentration (0.1%) across the different groups. […] was used as a positive control.

healthy volunteers = assay: First-in-human study of safety, tolerability, PK and PD; type: in vivo; settings: single and multiple ascending dose, thus far
Excerpt: Part A (Single Ascending Dose Study) Part A of the study was a first-in-human, randomized, double-blind, placebo-controlled, parallel-group, single ascending dose study of the safety, tolerability, and PK of Compound 1 in a maximum of 50 healthy male and female (non-childbearing potential) participants. Forty participants will be enrolled in up to 5 sequential cohorts.
Part B (Multiple Ascending Dose Study) Part B of the study is on-going and was initiated after the first 2 cohorts in Part A of the study had been completed. The doses in Part B were determined from Part A of the study and were not higher than the highest dose that was administered in Part A of the study.
Part B of the study is a randomized, double-blind, placebo-controlled, parallel-group, multiple ascending dose study of the PK, PD, safety, and tolerability of Compound 1 administered for 7 days in a maximum of 40 healthy male and female (non-childbearing potential) participants.

[3] = therapeutic, 11- to 12-week, high and highest doses

SMILES | hepatic Col1α1, Col1α1, and Col3α1 expression ([1]; all doses) | levels of pSMAD3/SMAD3 in the liver ([1]; all doses, dosed during final week of injury) | antifibrotic activity ([1]; liver fibrosis (CCl4)) | antifibrotic activity (CDAHFD NASH mouse model; NASH (CDAHFD)) | expression of Ehhadh (CDAHFD NASH mouse model; prophylactic, 3-week, high dose, both studies) | gene expression of collagens (CDAHFD NASH mouse model; prophylactic, 3-week, high dose, one of the studies) | collagen area (histological analysis) (CDAHFD NASH mouse model; therapeutic, 11- to 12-week) | composite fibrosis score (second harmonic generation imaging): quantity and quality of collagen fibers (CDAHFD NASH mouse model; therapeutic, 11- to 12-week) | gene expression of Acox1 and Ehhadh (CDAHFD NASH mouse model; therapeutic, 11- to 12-week) | collagen gene expression (Col1α1 and Col3α1) (CDAHFD NASH mouse model; [3]) | gene expression of profibrotic markers Ctgf, Mmp-2 and Timp1 (CDAHFD NASH mouse model; [3]) | TIMP1 gene expression (in words) ([2]; 5 cirrhotic NASH patient explants, after two days of treatment) | COL1A1 gene expression (in words) ([2]; fibrotic liver tissue from 5 patients with NASH) | reduction of level of FBN-C in culture media ([2]; significant) | tolerability (healthy volunteers) | reduction of OHP concentrations (CDAHFD NASH mouse model; 10-week CDAHFD study) | reduction of pSMAD3 levels (CDAHFD NASH mouse model; 10-week CDAHFD study)
CC1(C(=O)N[C@@H](CCCCCCCc2ccc3c(n2)NCCC3)C(=O)O)CCOCC1 [Compound 1, (S)-2-(4-methyltetrahydro-2H-pyran-4-carboxamido)-9-(5,6,7,8-tetrahydro-1,8-naphthyridin-2-yl)nonanoic acid] | significant reduction; also recorded: significantly reduced | significantly reduced | potent and dose-dependent antifibrotic activity | effective antifibrotic agent; also recorded: potent and dose-dependent antifibrotic activity | significantly elevated | Significantly reduced | significant reduction | significant reduction | significantly increased | significantly reduced | significantly reduced | reduced; also recorded: decreased expression; also recorded: reduces expression | decreased expression; also recorded: reduces expression | 26% | well tolerated | – | –
CC(C)(C)c1cc(Br)cc([C@H](CC(=O)O)NC(=O)CNC(=O)c2cc(O)cc(NC3=NCC(O)CN3)c2)c1 (stereo partly drawn) [CWHM12, (3S)-N-[3-hydroxy-5-[(1,4,5,6-tetrahydro-5-hydroxy-2-pyrimidinyl)amino]benzoyl]glycyl-3-[3-bromo-5-(1,1-dimethylethyl)phenyl]β-alanine, reference compound] | – | – | – | – | – | – | – | – | – | – | – | – | – | – | – | 30% | 61%
